This passage reports Ki results from paper PMC4629031, “Evaluation of the Inhibitory Effects of Bavachinin and Bavachin on Human Monoamine Oxidases A and B” (Evidence-based Complementary and Alternative Medicine : eCAM, 2015).

In general, Ki refers to a measure of affinity in units of concentration, obtained from inhibition or displacement.

Assay [1] has as its target T1, human monoamine oxidase A (hMAO-A) (Homo sapiens, UniProt P21397).
T1 construct: gene MAOA
T1 sequence (P21397 1-527): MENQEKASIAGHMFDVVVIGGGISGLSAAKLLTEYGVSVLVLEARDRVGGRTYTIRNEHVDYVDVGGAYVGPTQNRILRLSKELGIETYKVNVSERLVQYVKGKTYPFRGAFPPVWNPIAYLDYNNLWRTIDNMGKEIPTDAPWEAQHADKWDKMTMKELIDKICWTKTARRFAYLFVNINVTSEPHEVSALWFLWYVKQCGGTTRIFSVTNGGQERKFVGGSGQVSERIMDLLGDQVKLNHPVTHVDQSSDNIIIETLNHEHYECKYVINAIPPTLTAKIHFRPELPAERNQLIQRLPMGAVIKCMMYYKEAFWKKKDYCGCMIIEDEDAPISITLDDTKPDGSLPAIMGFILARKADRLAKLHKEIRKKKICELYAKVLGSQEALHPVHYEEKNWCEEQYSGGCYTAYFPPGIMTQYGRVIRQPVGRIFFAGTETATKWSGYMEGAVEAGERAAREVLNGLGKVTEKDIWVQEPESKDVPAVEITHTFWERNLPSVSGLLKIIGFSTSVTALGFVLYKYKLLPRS
Kind of assay: MAO-Glo luminescent assay with recombinant enzyme; Michaelis-Menten/Lineweaver-Burk kinetics (IC50 […]). It counts as biochemical.

Assay [2] has as its target T2, human monoamine oxidase B (hMAO-B) (Homo sapiens, UniProt P27338).
T2 construct: gene MAOB
T2 sequence (P27338 2-520): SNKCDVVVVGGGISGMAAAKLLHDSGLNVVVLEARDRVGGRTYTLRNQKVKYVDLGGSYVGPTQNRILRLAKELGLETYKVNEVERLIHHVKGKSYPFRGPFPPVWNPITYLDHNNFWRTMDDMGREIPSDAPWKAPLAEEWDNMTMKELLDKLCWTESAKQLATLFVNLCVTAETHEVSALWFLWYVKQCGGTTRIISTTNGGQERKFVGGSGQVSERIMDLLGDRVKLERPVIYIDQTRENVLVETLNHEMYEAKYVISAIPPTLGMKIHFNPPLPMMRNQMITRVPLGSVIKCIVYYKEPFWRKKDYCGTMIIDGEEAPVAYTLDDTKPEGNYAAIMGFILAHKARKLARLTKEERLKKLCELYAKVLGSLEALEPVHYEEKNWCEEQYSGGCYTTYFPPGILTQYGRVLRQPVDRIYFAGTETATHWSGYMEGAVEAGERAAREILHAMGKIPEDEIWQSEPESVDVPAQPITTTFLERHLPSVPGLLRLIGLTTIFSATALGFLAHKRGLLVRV
The description is as above. The assay is classed as biochemical.

Molecules are shown by their SMILES.

As to `COc1cc2c(cc1CC=C(C)C)C(=O)C[C@@H](c1ccc(O)cc1)O2` [BNN, 4′-hydroxy-7-methoxy-6-(3-methyl-2-butenyl) flavanone], the Ki worked out at 95.3 µM in assay [1] and 9.22 µM in assay [2].
